This is an account of results in ChEMBL document CHEMBL1158831, “Meroditerpenoids from a Formosan soft coral Nephthea chabrolii” (J Nat Prod, 2005).

Broadly, the IC50 is the concentration that inhibits the measured activity by half. A higher IC50 goes with a need for much substance.

Format in all cases: functional, cell-based
In one assay the test system is A549. Briefly: Cytotoxicity against human A549 cells after 6 days by MTT method. As to conditions: A549, 144 h.
A further assay has as its system MDA-MB-231. Briefly: Cytotoxicity against human MDA-MB-231cells after 6 days by MTT method. As to conditions: MDA-MB-231, 144 h. For orientation: Tetrazolium dyes change colour on reduction, which living cells bring about.
A further assay concerns HepG2. Briefly: Cytotoxicity against human HepG2 cells after 6 days by MTT method. As to conditions: HepG2, 144 h.

For `CC(C)=CCC/C(=C/CC/C(C)=C/CC/C(C)=C/CC1=CC(=O)C(C)=CC1=O)CO` [CHABROLOBENZOQUINONE E], the IC50 in the assay on A549, with MDA-MB-231 and with HepG2 was over 48.8 µM throughout.

Take `CC(=O)OC/C(=C\CC/C(C)=C/CC/C(C)=C/CC1=CC(=O)C(C)=CC1=O)CCC=C(C)C` [CHABROLOBENZOQUINONE F]: the 50% inhibitory concentration (IC50) worked out at 38.1 µM in the assay with A549, 33.2 µM in the assay on MDA-MB-231 and 38.1 µM in the assay on HepG2.

As to `CC(=O)O[C@H](CC/C(C)=C/CC/C(C)=C/CC1=CC(=O)C(C)=CC1=O)[C@@](C)(O)CCC=C(C)C` [CHABROLOBENZOQUINONE H], the figures for the half-inhibitory concentration (IC50) in the assay with A549, in the assay with MDA-MB-231 and in the assay with HepG2 were 38 µM, 31.4 µM and over 42.5 µM, respectively.

As to `CC(C)=CCC/C(C)=C/CC/C(C)=C/CC[C@](C)(O)/C=C\c1cc(O)c(C)cc1O` [CHABROLOHYDROXYBENZOQUINONE E], the half-inhibitory concentration (IC50) with A549, in the assay on MDA-MB-231 and with HepG2 was over 48.5 µM in each case.

Consider `CC(C)=CCC/C(C)=C/[C@@H](O)C/C(C)=C/CC[C@](C)(O)/C=C\c1cc(O)c(C)cc1O` [CHABROLOHYDROXYBENZOQUINONE F], for which the half-inhibitory concentration (IC50) with A549 is 42.3 µM; in the assay on MDA-MB-231, over 46.7 µM; with HepG2 it was 44.4 µM.

Regarding `CC(=O)O[C@H](CC/C(C)=C/CC[C@](C)(O)/C=C\c1cc(O)c(C)cc1O)[C@@](C)(O)CCC=C(C)C` [CHABROLOHYDROXYBENZOQUINONE G], the IC50 in the assay on A549 was found to be 26.8 µM; in the assay with MDA-MB-231, 18 µM; in the assay with HepG2, 18.4 µM.

Regarding `CC(=O)O[C@H](CC/C(C)=C/CCc1ccc2c(c1)C(=O)C(C)=CC2=O)[C@@](C)(O)CCC=C(C)C` [CHABROLONAPHTHOQUINONE B], the IC50 is 33.9 µM in the assay with A549, 4.7 µM with MDA-MB-231 and 12.4 µM in the assay on HepG2.

In the case of `COc1cccc2c1C(=O)c1c(O)c3c(c(O)c1C2=O)C[C@@](O)(C(=O)CO)C[C@@H]3O[C@H]1C[C@H](N)[C@H](O)[C@H](C)O1` [DOXORUBICIN], the results for the IC50 with A549, in the assay on MDA-MB-231 and in the assay with HepG2 were 0.17 µM, 0.07 µM and 0.17 µM, respectively.
